Holding throughout (type): biochemical
For one experiment, the target named is T1, Pim-2 (Homo sapiens, UniProt Q9P1W9).
T1 construct: His6-labelled recombinant full-length human Pim-1, Pim-2 or Pim-3 protein; His6; made in house
Put plainly: TR-FRET assay, Pim-2 kinase (phosphorylation of Bad Ser112). The settings on record: TR-FRET; ATP 40 μM; read-out: IC50 Pim2. As for the experimental part: (§1) In order to determine the inhibition of activation of Pim kinases, the compounds of the invention are tested in accordance with a routinely used in vitro TR-FRET assay (Time-Resolved Fluorescence Resonance Energy Transfer). […] For the assay, the following reagents are used:
(§2) Pim kinase—His6-labelled recombinant full-length human Pim-1, Pim-2 or Pim-3 protein (prepared according to J. Mol. Biol. (2005) 348, 183-193); Bad—His6-labelled recombinant full-length human Bad protein (prepared according to J. Mol. Biol. (2005) 348, 183-193); α-His6-APC—murine monoclonal antibody conjugated to allophycocyanin SureLight™ directed against the His6 label (Perkin-Elmer, No. AD0059H, Waltham, Mass., United States); • β-P˜Bad-Eu—murine monoclonal antibody (Cell Signaling Technology #9296B, Danvers, Mass., United States) directed against phosphoBad (Ser112) (7E11) custom-labelled by Perkin-Elmer with the reagent LANCE™ Eu-W1024.
(§3) The assay is based on Perkin-Elmer's LANCE™ technology: the Eu-labelled antibody binds to phospho-Ser112 and generates a TR-FRET signal by interaction with the APC-labelled antibody directed against His6, bound to the His6 label of Bad. The TR-FRET signal is detected using a SpectraMax M5 plate reader (Molecular Devices) with the following settings: λex=340 nm, λem1=615 nm, λem2=665 nm. The ratio of the fluorescence signal at 665 nm to the fluorescence signal at 615 nm is used as the signal reading for the IC50 (calculation is based on the 4-parameter logistic model). The assay is performed in a 384-well format; the liquid manipulations are performed using a Beckman 3000 liquid manipulations station. The test compounds are tested at 10 concentration points in duplicate; the highest compound concentration is typically equal to 30 μM. The ATP concentration is equal to 40 μM, which is equivalent to the apparent KM value.

For a further experiment, the target named is T2, Pim-1 (Homo sapiens, UniProt P11309).
T2 construct: His6-labelled recombinant full-length human Pim-1, Pim-2 or Pim-3 protein; His6; made in house
T2 sequence (P11309 whole entry): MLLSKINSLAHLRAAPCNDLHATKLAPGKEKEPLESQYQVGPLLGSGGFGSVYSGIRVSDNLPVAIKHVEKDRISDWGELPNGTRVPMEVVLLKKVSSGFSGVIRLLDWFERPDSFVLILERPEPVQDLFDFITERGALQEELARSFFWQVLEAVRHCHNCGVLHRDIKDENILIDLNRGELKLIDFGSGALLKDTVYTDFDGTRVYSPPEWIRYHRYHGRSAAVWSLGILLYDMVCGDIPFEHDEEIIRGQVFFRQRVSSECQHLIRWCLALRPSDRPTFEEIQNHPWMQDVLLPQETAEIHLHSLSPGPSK
Put plainly: TR-FRET assay, Pim-1 kinase (phosphorylation of Bad Ser112). The settings on record: TR-FRET; ATP 40 μM; read-out: IC50 Pim1. How it is done: as §1, §2, §3

The target in another experiment is T3, Pim-3 (Homo sapiens, UniProt Q86V86).
T3 construct: His6-labelled recombinant full-length human Pim-1, Pim-2 or Pim-3 protein; His6; made in house
Put plainly: TR-FRET assay, Pim-3 kinase (phosphorylation of Bad Ser112). The settings on record: TR-FRET; ATP 40 μM; read-out: IC50 Pim3. As for the experimental part: as §1, §2, §3

This is an account of results in patent publication US20110178053A1, “AZACARBOLINE DERIVATIVES, PREPARATION METHOD THEREOF AND THERAPEUTIC USE OF SAME” (SANOFI-AVENTIS, priority 2008, published 2011).

T1 sequence (Q9P1W9 whole entry): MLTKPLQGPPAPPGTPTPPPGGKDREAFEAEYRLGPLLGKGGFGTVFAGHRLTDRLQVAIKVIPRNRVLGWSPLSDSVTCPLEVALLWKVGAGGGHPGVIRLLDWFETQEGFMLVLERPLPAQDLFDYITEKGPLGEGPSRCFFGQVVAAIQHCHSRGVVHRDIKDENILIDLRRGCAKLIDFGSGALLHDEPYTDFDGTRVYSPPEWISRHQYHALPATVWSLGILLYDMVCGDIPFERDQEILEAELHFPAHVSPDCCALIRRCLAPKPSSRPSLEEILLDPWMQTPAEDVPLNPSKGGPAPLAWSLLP

Consider `FC(F)(F)COc1cnc2[nH]c3cnc(-c4cccnc4)cc3c2c1` [Example 111, 6-(pyrid-3-yl)-3-(2,2,2-trifluoroethoxy)-9H-pyrrolo[2,3-b:5,4-c′]dipyridine], for which the IC50 at Pim-2 fell in the range of 1000 to 5000 nM; on Pim-1 it was 1 to 100 nM; on Pim-3, 100 to 1000 nM.

Take `CC(C)(N)C#Cc1c(F)cnc2[nH]c3cnc(-c4cccnc4)cc3c12` [Example 90, 4-[3-fluoro-6-(pyrid-3-yl)-9H-pyrrolo[2,3-b:5,4-c′]dipyrid-4-yl]-2-methylbut-3-yn-2-amine]: the 50% inhibitory concentration (IC50) at Pim-2 was over 5000 nM; at Pim-1 it was 100 to 1000 nM; at Pim-3, 100 to 1000 nM.

In the case of `CC(=O)N1CCN(c2cccc(-c3cnc4[nH]c5cnc(-c6cccnc6)cc5c4c3)c2)CC1` [Example 136, 1-(4-{3-[6-(pyrid-3-yl)-9H-pyrrolo[2,3-b:5,4-c′]dipyrid-3-yl]phenyl}piperazin-1-yl)-ethanone], the IC50 was over 5000 nM at Pim-2, 1 to 100 nM on Pim-1 and 1 to 100 nM at Pim-3.

In the case of `c1cncc(-c2cc3c(cn2)[nH]c2ncc(-c4ccc(OCCCN5CCOCC5)cc4)cc23)c1` [Example 149, 3-{4-[3-(morpholin-4-yl)propoxy]phenyl}-6-(pyrid-3-yl)-9H-pyrrolo[2,3-b:5,4-c′]-dipyridine], the IC50 at Pim-2 fell in the range of 100 to 1000 nM; on Pim-1, 1 to 100 nM; on Pim-3 it was 1 to 100 nM.

In the case of `COc1ccc(-c2c(F)cnc3[nH]c4cnc(-c5cccnc5)cc4c23)cn1` [Example 52, 3-fluoro-4-(6-methoxypyrid-3-yl)-6-(pyrid-3-yl)-9H-pyrrolo[2,3-b:5,4-c′]-dipyridine], the IC50 at Pim-2 was over 5000 nM; on Pim-1, 100 to 1000 nM; on Pim-3 it was 100 to 1000 nM.

Regarding `c1cncc(-c2cc3c(cn2)[nH]c2ncc(-c4ccnc(N5CCNCC5)c4)cc23)c1` [Example 144, 3-[2-(piperazin-1-yl)pyrid-4-yl]-6-(pyrid-3-yl)-9H-pyrrolo[2,3-b:5,4-c′]dipyridine], the IC50 on Pim-2 is over 5000 nM; at Pim-1 it was 1 to 100 nM; on Pim-3 it was 1 to 100 nM.

As for `CN(C)C1CCN(c2c(F)cnc3[nH]c4cnc(-c5cccnc5)cc4c23)CC1` [Example 84, 1-[3-fluoro-6-(pyrid-3-yl)-9H-pyrrolo[2,3-b:5,4-c′]dipyrid-4-yl]-N,N-dimethylpiperid-4-amine], the values for the IC50 at Pim-2, on Pim-1 and at Pim-3 were 1000 to 5000 nM, 100 to 1000 nM and 100 to 1000 nM, respectively.

As for `O=S(=O)(Nc1ccc(-c2c(F)cnc3[nH]c4cnc(-c5cccnc5)cc4c23)cc1)C1CC1` [Example 46, N-{4-[3-fluoro-6-(pyrid-3-yl)-9H-pyrrolo[2,3-b:5,4-c′]dipyrid-4-yl]phenyl}cyclo-propanesulfonamide], the IC50 on Pim-2 was 100 to 1000 nM; on Pim-1, 1 to 100 nM; on Pim-3, 1 to 100 nM.

In the case of `c1cncc(-c2cc3c(cn2)[nH]c2ncc(-c4cccc(N5CCN(C6CC6)CC5)c4)cc23)c1` [Example 142, 3-[3-(4-cyclopropylpiperazin-1-yl)phenyl]-6-(pyrid-3-yl)-9H-pyrrolo[2,3-b:5,4-c′]-dipyridine], the results for the IC50 at Pim-2, at Pim-1 and on Pim-3 were over 5000 nM, 1 to 100 nM and 1 to 100 nM, respectively.

As for `CSc1cncc(-c2cc3c(cn2)[nH]c2ncc(F)cc23)c1` [Example 161, 3-fluoro-6-[5-(methylsulfanyl)pyrid-3-yl]-9H-pyrrolo[2,3-b:5,4-c′]dipyridine], the IC50 on Pim-2 is over 5000 nM; at Pim-1 it was 100 to 1000 nM; at Pim-3, 100 to 1000 nM.

Regarding `c1cncc(-c2cc3c(cn2)[nH]c2ncc(-c4cccc(N5CCNCC5)c4)cc23)c1` [Example 132, 3-[3-(piperazin-1-yl)phenyl]-6-(pyrid-3-yl)-9H-pyrrolo[2,3-b:5,4-c′]dipyridine], the IC50 was in the range of 100 to 1000 nM on Pim-2, 1 to 100 nM on Pim-1 and 1 to 100 nM on Pim-3.

On to `CCOC(=O)c1cnc2[nH]c3cnc(-c4cccnc4)cc3c2c1` [Example 4, ethyl 6-(pyrid-3-yl)-9H-pyrrolo [2,3-b:5,4-c′] dipyridine-3-carboxylate], for which the IC50 on Pim-2 was 1000 to 5000 nM; at Pim-1, 1 to 100 nM; on Pim-3, 100 to 1000 nM.

For `COc1cnc2[nH]c3cnc(-c4cnn(CCC5CCCCN5C)c4)cc3c2c1` (stereo not drawn) [Example 169, 3-methoxy-6-{1-[2-(1-methylpiperid-2-yl)ethyl]-1H-pyrazol-4-yl}-9H-pyrrolo[2,3-b:5,4-c′]dipyridine], the IC50 is over 5000 nM on Pim-2, 100 to 1000 nM on Pim-1 and 100 to 1000 nM on Pim-3.

For the compound `CC(C)COC(=O)c1cnc2[nH]c3cnc(-c4cccnc4)cc3c2c1` [Example 18, 2-methylpropyl 6-(pyrid-3-yl)-9H-pyrrolo[2,3-b:5,4-c′]dipyridine-3-carboxylate], the values for the IC50 on Pim-2, at Pim-1 and at Pim-3 were over 5000 nM, 1 to 100 nM and 100 to 1000 nM, respectively.

Take `Nc1cnc2[nH]c3cnc(-c4cccnc4)cc3c2c1` [Example 109, 6-(pyrid-3-yl)-9H-pyrrolo[2,3-b:5,4-c′]dipyrid-3-amine]: the half-inhibitory concentration (IC50) on Pim-2 was over 5000 nM; at Pim-1, 1 to 100 nM; on Pim-3, 100 to 1000 nM.

For `OCc1cnc2[nH]c3cnc(-c4cccnc4)cc3c2c1` [Example 17, [6-(pyrid-3-yl)-9H-pyrrolo[2,3-b:5,4-c′]dipyrid-3-yl]methanol], the half-inhibitory concentration (IC50) on Pim-2 was over 5000 nM; at Pim-1, 100 to 1000 nM; at Pim-3, 100 to 1000 nM.

Turning to `c1cncc(-c2cc3c(cn2)[nH]c2ncc(N4CCNCC4)cc23)c1` [Example 108, 3-(piperazin-1-yl)-6-(pyrid-3-yl)-9H-pyrrolo[2,3-b:5,4-c′]-dipyridine], the figures for the IC50 at Pim-2, at Pim-1 and on Pim-3 were over 5000 nM, 1 to 100 nM and 1 to 100 nM, respectively.

On to `CCOC(=O)/C=C/c1c(F)cnc2[nH]c3cnc(-c4cccnc4)cc3c12` [Example 29, ethyl (2E)-3-[3-fluoro-6-(pyrid-3-yl)-9H-pyrrolo-[2,3-b:5,4-c′]dipyrid-4-yl]prop-2-enoate], for which the IC50 on Pim-2 is over 5000 nM; at Pim-1 it was 100 to 1000 nM; at Pim-3 it was 100 to 1000 nM.

Regarding `CC(C)C(=O)Nc1ccc(-c2c(F)cnc3[nH]c4cnc(-c5cccnc5)cc4c23)cc1` [Example 68, N-{4-[3-fluoro-6-(pyrid-3-yl)-9H-pyrrolo[2,3-b:5,4-c']-dipyrid-4-yl]phenyl}-2-methylpropanamide], the IC50 on Pim-2 was 1000 to 5000 nM; on Pim-1, 1 to 100 nM; on Pim-3, 100 to 1000 nM.

On to `Cn1cc(-c2cc3c(cn2)[nH]c2ncc(F)c(-c4ccc(NS(C)(=O)=O)cc4)c23)cn1` [Example 171, N-{-4-[3-fluoro-6-(1-methyl-1H-pyrazol-4-yl)-9H-pyrrolo[2,3-b:5,4-c′]dipyrid-4-yl]-phenyl}methane sulfonamide], for which the IC50 on Pim-2, on Pim-1 and at Pim-3 was 1 to 100 nM throughout.

Take `c1cncc(-c2cc3c(cn2)[nH]c2ncc(-c4ccc(N5CCN(C6CC6)CC5)cc4)cc23)c1` [Example 141, 3-[4-(4-cyclopropylpiperazin-1-yl)phenyl]-6-(pyrid-3-yl)-9H-pyrrolo[2,3-b:5,4-c′]-dipyridine]: the IC50 was 1000 to 5000 nM on Pim-2, 1 to 100 nM on Pim-1 and 1 to 100 nM on Pim-3.

With `CS(=O)(=O)N1CCN(CCCOc2ccc(-c3cnc4[nH]c5cnc(-c6cccnc6)cc5c4c3)cc2)CC1` [Example 152, 3-(4-{3-[4-(methylsulfonyl)piperazin-1-yl]propoxy}phenyl)-6-(pyrid-3-yl)-9H-pyrrolo-[2,3-b:5,4-c′]dipyridine], the IC50 on Pim-2 lay within 100 to 1000 nM; on Pim-1, 1 to 100 nM; on Pim-3, 1 to 100 nM.

As for `COc1cncc(-c2cc3c(cn2)[nH]c2ncc(F)cc23)c1` [Example 159, 3-fluoro-6-(5-methoxypyrid-3-yl)-9H-pyrrolo[2,3-b:5,4-c′]dipyridine], the IC50 on Pim-2 is over 5000 nM; on Pim-1, 1000 to 5000 nM; on Pim-3, 1000 to 5000 nM.

Regarding `c1cncc(-c2cc3c(cn2)[nH]c2ncc(-c4ccc(OCCN5CCOCC5)cc4)cc23)c1` [Example 148, 3-{4-[2-(morpholin-4-yl)ethoxy]phenyl}-6-(pyrid-3-yl)-9H-pyrrolo[2,3-b:5,4-c′]-dipyridine], the IC50 on Pim-2 is 100 to 1000 nM; at Pim-1, 1 to 100 nM; on Pim-3 it was 1 to 100 nM.
